Test results from patent US20140142177A1, “TOPICAL ORGANIC ACID SALT COMPOSITIONS SUITABLE FOR TREATING INFECTIONS” (priority 2009, published 2014).

Tested on: T. rubrum
Experiment: Demonstration of synergistic activity, CLSI Reference Method 38-A2, growth at combined dilutions
Format: cell-based, Trichophyton rubrum
Design: key to growth of T. rubrum: N=negative growth; P=positive growth
Settings: for concentration at which negative growth was shown, individually: T. rubrum, tested individually
Protocol: This method is the gold standard used in measuring the antifungal susceptibility of filamentous fungi that cause invasive infections. Fungal colonies are grown on potato glucose agar (PGA). One colony is picked and grown in Sabouraud glucose broth (SGB) at 24° C. for 3 days in the presence of test compound. Microdilution trays are incubated at 24° C., and are read after 5 days of culture. Turbidity in the microdilution wells is scored with the aid of a reading mirror and compared with that of the growth control. A numerical score from 0 to 4 is given to each well using the following scale: 0=optically clear or absence of growth, 1=slight growth (25% of growth control), 2=prominent reduction in growth (50% of growth control), 3=slight reduction in growth (75% of growth control), 4=no reduction in growth.

Question: For O=C[O-].[Na+] [Formulation F12, sodium formate], which “growth of T. rubrum” value (F12 0.004X alone) is on record?
Answer: The value was “P 0.004X”.

Question: And the “growth of T. rubrum” value (F12 0.007X alone)?
Answer: Its value is “P 0.007X”.

Question: And the “growth of T. rubrum” value (F12 0.015X alone)?
Answer: The value was “P 0.015X”.

Question: And the “growth of T. rubrum” value (F12 0.03X alone)?
Answer: The value was “P 0.03X”.

Question: And the “growth of T. rubrum” value (F12 0.06X alone)?
Answer: Its value is “N 0.06X”.

Question: What about the “growth of T. rubrum” value (F12 0.125X alone) of the same compound?
Answer: The value was “N 0.125X”.

Question: And the “growth of T. rubrum” value (F12 0.25X alone)?
Answer: The value was “N 0.25X”.

Question: And the “concentration at which negative growth was shown, individually” value (“concentration” for short)?
Answer: The value was 0.06 times the initial concentration.

Question: How did the “growth of T. rubrum” value (F11 0.004X alone) turn out when O=C([O-])c1ccccc1.[Na+] [Formulation F11, sodium benzoate] was run?
Answer: Its value is “P 0.004X”.

Question: What about the “growth of T. rubrum” value (F11 0.007X alone) of the same compound?
Answer: Its value is “P 0.007X”.

Question: And the “growth of T. rubrum” value (F11 0.015X alone)?
Answer: The value was “P 0.015X”.

Question: What about the “growth of T. rubrum” value (F11 0.03X alone) of the same compound?
Answer: The value was “N 0.03X”.

Question: What about the “growth of T. rubrum” value (F11 0.06X alone) of the same compound?
Answer: Its value is “N 0.06X”.

Question: What about the “growth of T. rubrum” value (F11 0.125X alone) of the same compound?
Answer: The value was “N 0.125X”.

Question: What about the “growth of T. rubrum” value (F11 0.25X alone) of the same compound?
Answer: The value was “N 0.25X”.

Question: What about the “concentration” value of the same compound?
Answer: Its value is 0.03 times the initial concentration.

Question: For CCC(=O)[O-].CCC(=O)[O-].[Zn+2] [Formulation F9, zinc propionate], which “growth of T. rubrum” value (F9 0.004X alone) is on record?
Answer: Its value is “P 0.004X”.

Question: What about the “growth of T. rubrum” value (F9 0.007X alone) of the same compound?
Answer: Its value is “P 0.007X”.

Question: What about the “growth of T. rubrum” value (F9 0.015X alone) of the same compound?
Answer: Its value is “P 0.015X”.

Question: What about the “growth of T. rubrum” value (F9 0.03X alone) of the same compound?
Answer: The value was “N 0.03X”.

Question: What about the “growth of T. rubrum” value (F9 0.06X alone) of the same compound?
Answer: Its value is “N 0.06X”.

Question: What about the “growth of T. rubrum” value (F9 0.125X alone) of the same compound?
Answer: Its value is “N 0.125X”.

Question: And the “growth of T. rubrum” value (F9 0.25X alone)?
Answer: Its value is “N 0.25X”.

Question: What about the “concentration” value of the same compound?
Answer: The value was 0.03 times the initial concentration.

Question: Which “growth of T. rubrum” value (F14 0.004X alone) does the source give for CC(=O)[O-].[Na+] [Formulation F14, sodium acetate] here?
Answer: Its value is “P 0.004X”.

Question: And the “growth of T. rubrum” value (F14 0.007X alone)?
Answer: Its value is “P 0.007X”.

Question: And the “growth of T. rubrum” value (F14 0.015X alone)?
Answer: The value was “P 0.015X”.

Question: What about the “growth of T. rubrum” value (F14 0.03X alone) of the same compound?
Answer: The value was “P 0.03X”.

Question: And the “growth of T. rubrum” value (F14 0.06X alone)?
Answer: Its value is “P 0.06X”.

Question: And the “growth of T. rubrum” value (F14 0.125X alone)?
Answer: Its value is “N 0.125X”.

Question: What about the “growth of T. rubrum” value (F14 0.25X alone) of the same compound?
Answer: Its value is “N 0.25X”.

Question: What about the “concentration” value of the same compound?
Answer: Its value is 0.125 times the initial concentration.
